Numbers after ± are expanded uncertainties.
Details: Liquid, Vibrating tube method

FC(C(F)(F)F)C(F)(F)F [1,1,1,2,3,3,3-heptafluoropropane]
Details	mass density [kg/m3]
293.15 K, 27338 kPa	1533.2 ± 1.7
293.15 K, 27374 kPa	1533.1 ± 1.7
293.15 K, 27410 kPa	1533.2 ± 1.7
293.15 K, 27435 kPa	1533.3 ± 1.7
293.15 K, 27481 kPa	1533.5 ± 1.7
293.15 K, 27522 kPa	1533.7 ± 1.7
293.15 K, 27553 kPa	1533.7 ± 1.7
293.15 K, 27589 kPa	1533.9 ± 1.7
293.15 K, 27619 kPa	1533.9 ± 1.7
293.15 K, 27655 kPa	1534 ± 1.7
293.15 K, 27692 kPa	1534.2 ± 1.7
293.15 K, 27728 kPa	1534.3 ± 1.7
293.15 K, 27759 kPa	1534.5 ± 1.7
293.15 K, 27800 kPa	1534.5 ± 1.7
293.15 K, 27841 kPa	1534.6 ± 1.7
293.15 K, 27871 kPa	1534.8 ± 1.7
293.15 K, 27912 kPa	1534.9 ± 1.7
293.15 K, 27953 kPa	1534.9 ± 1.7
293.15 K, 27984 kPa	1535.1 ± 1.7
293.15 K, 28026 kPa	1535.1 ± 1.7
293.15 K, 28067 kPa	1535.5 ± 1.7
293.15 K, 28097 kPa	1535.4 ± 1.7
293.15 K, 28144 kPa	1535.6 ± 1.7
293.15 K, 28185 kPa	1535.7 ± 1.7
293.15 K, 28216 kPa	1535.9 ± 1.7
293.15 K, 28258 kPa	1536 ± 1.7
293.15 K, 28300 kPa	1536 ± 1.7
293.15 K, 28327 kPa	1536.1 ± 1.7
293.15 K, 28369 kPa	1536.4 ± 1.7
293.15 K, 28411 kPa	1536.5 ± 1.7
293.15 K, 28442 kPa	1536.7 ± 1.7
293.15 K, 28484 kPa	1536.7 ± 1.7
293.15 K, 28520 kPa	1536.8 ± 1.7
293.15 K, 28556 kPa	1536.8 ± 1.7
293.15 K, 28588 kPa	1537.1 ± 1.7
293.15 K, 28619 kPa	1537.1 ± 1.7
293.15 K, 28667 kPa	1537.3 ± 1.7
293.15 K, 28709 kPa	1537.3 ± 1.7
293.15 K, 28735 kPa	1537.5 ± 1.7
293.15 K, 28783 kPa	1537.7 ± 1.7
293.15 K, 28823 kPa	1537.8 ± 1.7
293.15 K, 28855 kPa	1537.9 ± 1.7
293.15 K, 28908 kPa	1538.1 ± 1.7
293.15 K, 28956 kPa	1538.2 ± 1.7
293.15 K, 28983 kPa	1538.2 ± 1.7
293.15 K, 29030 kPa	1538.3 ± 1.7
293.15 K, 29072 kPa	1538.5 ± 1.7
293.15 K, 29104 kPa	1538.5 ± 1.7
293.15 K, 29147 kPa	1538.8 ± 1.7
293.15 K, 29179 kPa	1538.8 ± 1.7
293.15 K, 29229 kPa	1539.1 ± 1.7
293.15 K, 29256 kPa	1539.1 ± 1.7
293.15 K, 29289 kPa	1539.1 ± 1.7
293.15 K, 29337 kPa	1539.3 ± 1.7
293.15 K, 29385 kPa	1539.4 ± 1.7
293.15 K, 29417 kPa	1539.6 ± 1.7
293.15 K, 29460 kPa	1539.7 ± 1.7
293.15 K, 29497 kPa	1539.7 ± 1.7
293.15 K, 29528 kPa	1540 ± 1.7
293.15 K, 29566 kPa	1540 ± 1.7
293.15 K, 29603 kPa	1540.2 ± 1.7
293.15 K, 29637 kPa	1540.3 ± 1.7
293.15 K, 29675 kPa	1540.4 ± 1.7
293.15 K, 29718 kPa	1540.6 ± 1.7
293.15 K, 29751 kPa	1540.4 ± 1.7
293.15 K, 29782 kPa	1540.6 ± 1.7
293.15 K, 29810 kPa	1540.8 ± 1.7
293.15 K, 29843 kPa	1540.9 ± 1.7
293.15 K, 29870 kPa	1540.9 ± 1.7
293.15 K, 29903 kPa	1541.1 ± 1.7
293.15 K, 29936 kPa	1541.1 ± 1.7
293.15 K, 29969 kPa	1541.3 ± 1.7
293.15 K, 29997 kPa	1541.2 ± 1.7
293.15 K, 30026 kPa	1541.4 ± 1.7
293.15 K, 30054 kPa	1541.5 ± 1.7
293.15 K, 30083 kPa	1541.6 ± 1.7
293.15 K, 30120 kPa	1541.8 ± 1.7
293.15 K, 30153 kPa	1541.8 ± 1.7
293.15 K, 30181 kPa	1541.9 ± 1.7
293.15 K, 30215 kPa	1542 ± 1.7
293.15 K, 30248 kPa	1542.1 ± 1.7
293.15 K, 30287 kPa	1542.3 ± 1.7
293.15 K, 30316 kPa	1542.4 ± 1.7
293.15 K, 30350 kPa	1542.5 ± 1.7
293.15 K, 30389 kPa	1542.5 ± 1.7
293.15 K, 30423 kPa	1542.7 ± 1.7
293.15 K, 30456 kPa	1542.8 ± 1.7
293.15 K, 30493 kPa	1542.8 ± 1.7
293.15 K, 30522 kPa	1542.9 ± 1.7
293.15 K, 30560 kPa	1543.2 ± 1.7
293.15 K, 30598 kPa	1543.1 ± 1.7
293.15 K, 30626 kPa	1543.2 ± 1.7
293.15 K, 30669 kPa	1543.4 ± 1.7
293.15 K, 30713 kPa	1543.5 ± 1.7
293.15 K, 30742 kPa	1543.5 ± 1.7
293.15 K, 30776 kPa	1543.6 ± 1.7
293.15 K, 30815 kPa	1543.8 ± 1.7
293.15 K, 30853 kPa	1543.9 ± 1.7
293.15 K, 30887 kPa	1543.9 ± 1.7
293.15 K, 30920 kPa	1544.1 ± 1.7
293.15 K, 30958 kPa	1544.3 ± 1.7
293.15 K, 30982 kPa	1544.4 ± 1.7
293.15 K, 31020 kPa	1544.4 ± 1.7
293.15 K, 31063 kPa	1544.6 ± 1.7
293.15 K, 31092 kPa	1544.7 ± 1.7
293.15 K, 31136 kPa	1544.7 ± 1.7
293.15 K, 31164 kPa	1544.7 ± 1.7
293.15 K, 31189 kPa	1544.9 ± 1.8
293.15 K, 31232 kPa	1545.1 ± 1.8
293.15 K, 31270 kPa	1545.2 ± 1.8
293.15 K, 31299 kPa	1545.2 ± 1.8
293.15 K, 31327 kPa	1545.4 ± 1.8
293.15 K, 31356 kPa	1545.3 ± 1.8
293.15 K, 31400 kPa	1545.5 ± 1.8
293.15 K, 31438 kPa	1545.7 ± 1.8
293.15 K, 31468 kPa	1545.7 ± 1.8
293.15 K, 31506 kPa	1545.8 ± 1.8
293.15 K, 31537 kPa	1546 ± 1.8
293.15 K, 31563 kPa	1546.1 ± 1.8
293.15 K, 31593 kPa	1546.1 ± 1.8
293.15 K, 31636 kPa	1546.3 ± 1.8
293.15 K, 31669 kPa	1546.4 ± 1.8
293.15 K, 31698 kPa	1546.4 ± 1.8
293.15 K, 31742 kPa	1546.6 ± 1.8
293.15 K, 31786 kPa	1546.7 ± 1.8
293.15 K, 31815 kPa	1546.8 ± 1.8
293.15 K, 31854 kPa	1546.8 ± 1.8
293.15 K, 31882 kPa	1547 ± 1.8
293.15 K, 31919 kPa	1547.1 ± 1.8
293.15 K, 31954 kPa	1547.1 ± 1.8
293.15 K, 31986 kPa	1547.3 ± 1.8
293.15 K, 32022 kPa	1547.3 ± 1.8
293.15 K, 32055 kPa	1547.6 ± 1.8
293.15 K, 32096 kPa	1547.7 ± 1.8
293.15 K, 32136 kPa	1547.8 ± 1.8
293.15 K, 32163 kPa	1547.7 ± 1.8
293.15 K, 32205 kPa	1548 ± 1.8
293.15 K, 32245 kPa	1548.1 ± 1.8
293.15 K, 32272 kPa	1548.1 ± 1.8
293.15 K, 32309 kPa	1548.2 ± 1.8
293.15 K, 32338 kPa	1548.3 ± 1.8
293.15 K, 32381 kPa	1548.3 ± 1.8
293.15 K, 32418 kPa	1548.5 ± 1.8
293.15 K, 32447 kPa	1548.7 ± 1.8
293.15 K, 32494 kPa	1548.7 ± 1.8
293.15 K, 32531 kPa	1548.9 ± 1.8
293.15 K, 32565 kPa	1548.9 ± 1.8
293.15 K, 32598 kPa	1549 ± 1.8
293.15 K, 32635 kPa	1549.1 ± 1.8
293.15 K, 32668 kPa	1549.3 ± 1.8
293.15 K, 32711 kPa	1549.4 ± 1.8
293.15 K, 33629 kPa	1552.1 ± 1.8
293.15 K, 33659 kPa	1552.1 ± 1.8
293.15 K, 33704 kPa	1552.3 ± 1.8
293.15 K, 33734 kPa	1552.3 ± 1.8
293.15 K, 33769 kPa	1552.5 ± 1.8
293.15 K, 33809 kPa	1552.5 ± 1.8
293.15 K, 33844 kPa	1552.5 ± 1.8
293.15 K, 33879 kPa	1552.6 ± 1.8
293.15 K, 33925 kPa	1552.9 ± 1.8
293.15 K, 33976 kPa	1553.1 ± 1.8
293.15 K, 34008 kPa	1553 ± 1.8
293.15 K, 34053 kPa	1553.2 ± 1.8
293.15 K, 34100 kPa	1553.3 ± 1.8
293.15 K, 34131 kPa	1553.5 ± 1.8
293.15 K, 34173 kPa	1553.5 ± 1.8
293.15 K, 34220 kPa	1553.9 ± 1.8
293.15 K, 34257 kPa	1553.9 ± 1.8
293.15 K, 34293 kPa	1553.8 ± 1.8
293.15 K, 34336 kPa	1554 ± 1.8
293.15 K, 34374 kPa	1554.1 ± 1.8
293.15 K, 34415 kPa	1554.3 ± 1.8
293.15 K, 34442 kPa	1554.3 ± 1.8
293.15 K, 34464 kPa	1554.4 ± 1.8
293.15 K, 34489 kPa	1554.4 ± 1.8
293.15 K, 34511 kPa	1554.7 ± 1.8
293.15 K, 34523 kPa	1554.6 ± 1.8
293.15 K, 34537 kPa	1554.6 ± 1.8
293.15 K, 34546 kPa	1554.6 ± 1.8
303.14 K, 1230 kPa	1372.6 ± 1.5
303.14 K, 7245 kPa	1416.2 ± 1.5
303.14 K, 7273 kPa	1416.3 ± 1.5
303.14 K, 7298 kPa	1416.5 ± 1.5
303.14 K, 7327 kPa	1416.7 ± 1.5
303.14 K, 7356 kPa	1416.8 ± 1.5
303.14 K, 7384 kPa	1417.1 ± 1.5
303.14 K, 7413 kPa	1417.1 ± 1.5
303.14 K, 10852 kPa	1437.1 ± 1.5
303.14 K, 10890 kPa	1437.1 ± 1.5
303.14 K, 10918 kPa	1437.3 ± 1.5
303.14 K, 10989 kPa	1437.6 ± 1.5
303.14 K, 12092 kPa	1443.4 ± 1.6
303.14 K, 12132 kPa	1443.6 ± 1.6
303.14 K, 12163 kPa	1443.8 ± 1.6
303.14 K, 12207 kPa	1443.9 ± 1.6
303.14 K, 12242 kPa	1444.1 ± 1.6
303.14 K, 12284 kPa	1444.2 ± 1.6
303.14 K, 12330 kPa	1444.6 ± 1.6
303.14 K, 12373 kPa	1444.7 ± 1.6
303.14 K, 14583 kPa	1455.6 ± 1.6
303.14 K, 14620 kPa	1455.8 ± 1.6
303.14 K, 14653 kPa	1455.9 ± 1.6
303.14 K, 14687 kPa	1456 ± 1.6
303.14 K, 14726 kPa	1456.4 ± 1.6
303.14 K, 14755 kPa	1456.5 ± 1.6

— the NIST ThermoML archive (doi:10.1021/je700260f)
